Data reported in article PMC9953468, “In Silico, In Vitro, and Ex Vivo Biological Activity of Some Novel Mebeverine Precursors” (Biomedicines, 2023).
Where “and” joins values, the source holds several entries; their conditions need not be identical. Equal entries are not always repeated. Entries after “also recorded” stand apart in the source; their conditions may differ. Where two headings read alike, the source gives them in different places. Marks after values point to notes of the source that are not given here.

Key:
[1] = system: SM preparations from the corpus gastric muscle; test: Ex vivo bioelectrical activity of smooth muscle preparations, single sucrose gap method; set-up: species or system Wistar rats; conditions: 5 × 10^−5 M; for Amplitude of slow waves, Measured value / Amplitude of spike potentials, Measured value / Number of slow waves, Measured value / Number of spike potentials, Measured value: 10 min, n = 7, mean ± SEM; for effect on bioelectrical activity (slow waves, spike potentials): in words; for Changes in the membrane potential: base activity taken as 100%, ↑ depolarization, ↓ hyperpolarization
Protocol: Adult male Wistar rats weighing 280–300 g were used. Animals were housed in standard laboratory conditions (23 to 25 °C, 50–55% humidity, 12/12 h light/dark cycle), while food and water were provided ad libitum.
Circular SM preparations were dissected from the corpus gastric muscle (26–28 mm long and 0.8–0.9 mm wide; without mucosa). Two or three muscle strips were taken from the rat stomach. The number of SM preparations used for each data point is indicated by n. After dissection, the tissues must prevent loss of viability, so during the dissection, the tissues were systematically moistened with a solution (NaCl:KCl:CaCl2 in ratio 27.2:1.1:1) prepared at 4 °C.
The BEA of SM preparations was investigated by means of the single sucrose gap method with silver non-polarizable freshly chlorinated electrodes. The muscle strips were divided into 3 zones: two electrode sections were flushed with isotonic KCl solution and Krebs solution (pH 7.3), respectively, and separated by a sucrose layer of high electric resistance. Krebs contained the following (in mM): NaCl 120; KCl 5.9; CaCl2 2.5; MgCl2 1.2; NaH2PO4 1.2; NaHCO3 15.4; glucose 11.5. All the ingredients for this solution were of analytical grade and obtained from Merck (Darmstadt, Germany). Deionized water (18.2 mX/cm^2) was used thoroughly. The KCl solution is similar to the Krebs solution but with an equimolar substitution of NaCl with KCl. An isotonic sucrose solution, due to its very high specific resistance (about 10^6 Ω·cm), provides the best possible separation of the sucrose solution from the physiological solution in the “normal” pool, on the one hand, and the solution providing a zero value of the membrane potential in the pool with another recording electrode.
The inflow rate of each solution (Krebs, KCl, and isotonic sucrose solution) was controlled by a needle valve and continuously aerated with a mixture of 95% O2 and 5% CO2, and the temperature was maintained at 37 °C. A potential difference between the two end sections of the gap (control conditions) was achieved by means of silver non-polarizable, freshly chlorinated electrodes and after a 40-min period of adaptation and stabilization was accepted as the initial (control). The Krebs solution was changed several times during the adaptation period. The viability of the SM preparations was periodically tested by treatment with 1 × 10^−6 M ACh.
The membrane potential value was visualized by means of a Linseis recorder (Selb, Germany). A pair of measuring electrodes is located on both sides of the sucrose sections. The pH (pH 7.3; 37 °C) of the Krebs bathing solution was measured before each experiment by pH-meter HI5521 (Hanna Instruments Inc., Woonsocket, RI, USA). […]
The new substances were dissolved initially in dimethyl sulphoxide (DMSO) to prepare a 5 × 10^−2 M stock solution. Further dilutions were made in distilled deionized water and were applied by adding aliquots of their concentrated solutions to the tissue bath.

MTT cell viability assay [2] = format: cell-based; conditions: mouse, CCL-1 normal fibroblast cells, CCL-1, normal murine fibroblast cells, read-out: In vitro cytotoxicity (IC50)
Protocol: (§1) In order to evaluate the in vitro biocompatibility of the experimental compounds, a series of cell viability assays were performed against human malignant leukemic cell lines (LAMA-84, K-562) as well as normal murine fibroblast cells (CCL-1). All cell lines were purchased from the German Collection of Microorganisms and Cell Cultures (DSMZ GmbH, Braunschweig, Germany). Cell cultures were cultivated in a growth medium RPMI 1640 supplemented with 10% fetal bovine serum (FBS), 5% L-glutamine, and incubated under standard conditions of 37 °C and 5% humidified CO2 atmosphere.
(§2) The experimental design involved a number of cytotoxicity assays that measured cell growth inhibition by the newly synthesized compounds. Cell viability was evaluated using a standard MTT-based colorimetric assay. Exponential-phased cells were harvested and seeded (100 μL/well) in 96-well plates at the appropriate density (3 × 10^5) for the suspension cultures (LAMA-84 and K-562) and 1.5 × 10^5 for the adherent one (CCL-1). Cells were treated and incubated with various concentrations of the experimental compounds in the concentration range of 400-6.25 µM. After exposure time of 72 h, a filter-sterilized MTT substrate solution (5 mg/mL in PBS) was added to each well of the culture plate. A further 1–4 h incubation allowed for the formation of purple insoluble formazan precipitates. The latter were dissolved in isopropyl alcohol solution containing 5% formic acid prior to absorbance measurement at 550 nm using a microplate reader (Labexim LMR-1). Collected absorbance values were blanked against MTT and isopropanol solution and normalized to the mean value of the untreated control (100% cell viability). Semi-logarithmic “dose–response” curves were constructed and the half-inhibitory concentrations of the screened compounds against each tested cell line were calculated. Values of p ≤ 0.05 were considered statistically significant.

MTT cell viability assay [3] = format: cell-based, human; conditions: human, ± SD, read-out: In vitro cytotoxicity (IC50)
Protocol: as §1, §2

5-HT3 receptor = test: Immunohistochemical analysis of 5-HT3 expression in gastric SM strips; set-up: species or system Wistar rats; key to 5-HT3 expression, 5-HT / 5-HT3 expression, Response to Compound: −: absent; +: low; ++: moderate; +++: strong; conditions: for 5-HT3 expression, Response to Compound: SM preparations incubated with the compound; for 5-HT3 expression in SM preparations: immunohistochemical staining after 1 h incubation, in words
Protocol: […] Then, each SM strip was fixed in 10% neutral buffer formalin for 24–48 h and submitted for standard processing with hematoxylin and eosin staining.
The SM fragments from a rat’s gastric wall were fixed in a 10% neutral formalin solution and embedded in paraffin. Paraffin sections of 5 μm thickness were subjected to hematoxylin and eosin (H-E) staining for histochemical analysis.
Sections of the SM fragments from the wall of a rat’s stomach with a thickness of 5 µm were deparaffinized, then subjected to antigenic detection of the epitopes with citrate buffer, and an endogenous peroxidase blockade was made with hydrogen […] 3%, a kit was used to block the endogenous biotin, and a reagent was used to block non-specific binding (Superblock, Scy Tek, Santa Cruz Biotech. Inc. Heidelberg, Germany) follows incubate for 24 h (at 4 °C) with monoclonal mouse anti-5-HT3, next incubated with a secondary antibody: biotinylated anti-rabbit for 10 min at room temperature. The reaction was visualized with 3,3′-diaminobenzidine tetrachloride and counterstained with Mayer’s hematoxylin.
A quantitative and statistical analysis of immunohistochemical reaction using the Olympus DP-Soft image system (version 4.1 for Windows) was carried out on a Microphot-SA (Nikon, Japan) microscope equipped with a Camedia-5050 Z digital camera (Olympus, Japan). The analysis was performed on sections from the SM strips from the stomach of Wistar rats (n = 6 for each group). Five sections of the SM strips were measured, and the percentage of cells expressing 5-HT3 in the circular and longitudinal layer of SM cells, as well as in the myenteric plexus of the stomach, was determined. Each antibody was analyzed for five fields, in each of them the average number of cells with positive unit area response at ×200 magnification.

[4] = K-562 cells (blast phase chronic myeloid leukemia), K-562, Blast phase CML (bcr-abl+)
[5] = LAMA-84, CML in blast crisis (bcr-abl+)

Row | SMILES | Amplitude of slow waves, Measured value [1] [mV] | Amplitude of spike potentials, Measured value [1] | Number of slow waves, Measured value [1] [min⁻¹] | Number of spike potentials, Measured value [1] | effect on bioelectrical activity (slow waves, spike potentials) [1] | Changes in the membrane potential [1] [%] | IC50 at 72 h (MTT cell viability assay [2]) [µM] | IC50 at 72 h (MTT cell viability assay [3]; [4]) [µM] | IC50 at 72 h (MTT cell viability assay [3]; [5]) [µM] | 5-HT3 expression, Response to Compound (5-HT3 receptor) | 5-HT3 expression in SM preparations (5-HT3 receptor) | 5-HT3 expression, 5-HT (5-HT3 receptor; SM preparations incubated with 5-HT, one per compound series)
1 | CC(C)C(Cc1ccccc1)NC(=O)c1ccccc1 (stereo not shown) [Compound 4b, N-(3-methyl-1-phenylbutan-2-yl)benzamide] | 5.09 ± 0.10 | 1.40 ± 0.12 mV | 4.50 ± 0.49 | 22.28 ± 0.18 min⁻¹ | do not affect the BEA | 0 | > 300 | 329 ± 20.4 | 265 ± 20.2 | − | no modulation on the 5-HT3R expression; also recorded: no 5-HT3 expression observed | 
2 | CC(C)C(Cc1ccccc1)NC(=O)c1ccccc1Cl (stereo not shown) [Compound 4c, 2-Chloro-N-(3-methyl-1-phenylbutan-2-yl)benzamide] | 5.34 ± 0.20 | 1.56 ± 0.17 mV | 4.42 ± 0.41 | 26.16 ± 0.26 min⁻¹ | do not affect the BEA | 0 | > 300 | 367 ± 8.4 | 266 ± 16.8 | − | no modulation on the 5-HT3R expression; also recorded: no 5-HT3 expression observed | 
3 | CC(C)C(Cc1ccccc1)NC(=O)Cc1ccccc1 (stereo not shown) [Compound 4d, N-(3-methyl-1-phenylbutan-2-yl)-2-phenylacetamide] | 4.97 ± 0.29 | 0 * mV | 4.82 ± 0.24 | 0 * min^−1 |  | 0 | > 300 | 244 ± 18.5 | 328 ± 15.9 | + | very weak non-specific effect; also recorded: weak 5-HT3 expression observed | 
4 | NCCc1c[nH]c2ccc(O)cc12 [Compound 5-HT, 5-hydroxytryptamine, reference compound] |  |  |  |  |  |  |  |  |  |  | higher number of 5-HT3R positive cells per section and 5-HT3 expression observed in the myenteric plexus | ++
